Results from paper PMC10320002, “In vitro antiproliferative, anti-inflammatory effects and molecular docking studies of natural compounds isolated from Sarcocephalus pobeguinii (Hua ex Pobég)” (Frontiers in Pharmacology, 2023).
“And” between values parts separate entries of the source, which are not always exact repeats. Equal values may be shown once.

Legend:
Caco-2 cells = experiment: MTT antiproliferation assay, Caco-2; format: cell-based, human; conditions: for IC50: Homo sapiens, Caco-2, 48 h, MTT; for SI values Caco-2: IC50 of non-cancerous Vero cells divided by IC50 of Caco-2
Procedure: (§1) Cancerous cell lines (MCF-7: human breast adenocarcinoma cells; HepG2: human hepatocellular carcinoma cells; Caco-2: human epithelial colorectal adenocarcinoma cells; A549: human epithelial lung adenocarcinoma cells), obtained from the American Type Culture Collection (ATCC) (Rockville, MD, United States of America), were cultured in Dulbecco’s Modified Eagle’s Medium (DMEM) high glucose (4.5 g/L) containing L-glutamine (4 mM) and sodium-pyruvate (Hyclone™) supplemented with 10% (v/v) fetal bovine serum (FBS) (Capricorn Scientific GmbH, South America), and incubated at 37°C with 5% CO2 in a humidified environment. African green monkey (Vero) kidney cells (also obtained from ATCC), a non-cancerous cell line, were grown in DMEM high glucose (4.5 g/L) containing L-glutamine (Lonza, Belgium) and supplemented with 5% FBS (Capricorn Scientific GmbH, South America) and 1% gentamicin (Virbac, RSA) in the same environment as cancer cells. The RAW 264.7 murine macrophage cells (obtained from ATCC) were cultured in DMEM high glucose (4.5 g/L) containing L-glutamine (Lonza, Belgium), supplemented with 10% FBS (Capricorn Scientific GmbH, South America) and 1% penicillin/streptomycin/fungizone (PSF) solution, and kept at 37°C in a 5% CO2 humidified environment.
The cancerous and non-cancerous cells were seeded at a density of 10^4 cells per well in 96-well microtiter plates, and they were incubated overnight at 37°C with 5% CO2 in a 5% CO2 humidified environment in order to allow the attachment of cells at the bottom of the plates. Then, the cells were exposed to increasing concentrations of compounds (100, 50, 25, 10 and 5 μg/mL) dissolved in dimethyl sulfoxide (DMSO) and further diluted in fresh culture medium. In this assay, the final concentration of DMSO in the culture medium was 0.5% used as negative control while doxorubicin hydrochloride (Pfizer, United States of America) was used as a positive control. The culture plates were incubated for 48 h at 37°C in a 5% CO2 humidified environment, after which the culture medium was discarded, and replaced by 200 µL of fresh culture medium with 30 µL of 3-(4,5-dimethylthiazol-2-yl)-2,5-diphenyl-2H-tetrazolium bromide (MTT) (5 mg/mL) dissolved in phosphate buffered saline ([Mosmann, 1983]). After 4 h of incubation, the medium was gently removed, and the formazan crystals were solubilized in 50 µL of DMSO. The absorbance was measured at 570 nm after shaking for 1 min on a microplate reader (Synergy Multi-Mode Reader, BioTek, Winooski, United States of America).
The cell viability rate was determined at each concentration of the compound as a percentage of cells treated with DMSO at 0.5% used as negative control. […] The selectivity index (Supporting Material) values were calculated for each compound by dividing the IC50 of non-cancerous cells by the IC50 of cancerous cells in the same units ([Mfotie Njoya et al., 2018]; [Mfotie Njoya et al., 2020]).

[1] = test system: NO production in LPS-stimulated RAW 264.7 cells; experiment: Nitric oxide production inhibitory assay (Griess) in LPS-stimulated RAW 264.7 cells; format: cell-based, murine; conditions: for reduction of NO production: 100 μg/mL; for IC50: Mus musculus, RAW264.7, LPS (2 μg/mL), 24 h
Procedure: as §1
Nitric oxide (NO) production was evaluated in lipopolysaccharide (LPS)-stimulated RAW 264.7 cells by measuring the influence of tested compounds on the accumulation of nitrite, an indicator of NO in the cell supernatant, which can be detected with Griess reagent (Merck, Darmstadt, Germany). Briefly, the RAW 264.7 cells at their exponential growth phase were seeded at a density of 2×10^4 cells per well in 96 well-microtiter plates, and they were incubated overnight at 37°C in a 5% CO2 humidified environment to allow attachment. […] Then, culture medium containing LPS (2 μg/mL) was added to each well and further incubated for 24 h at 37°C in a 5% CO2 humidified environment. Thereafter, 100 μL of cell supernatant from each well were transferred into a new 96-well microtiter plate and an equal volume of Griess reagent was added according to protocol described by the manufacturer. The microtiter plate was incubated for 10 min in the dark at room temperature, and the absorbance of the mixture was measured at 550 nm on a microplate reader (Synergy Multi-Mode Reader, BioTek, Winooski, United States of America). The quantity of nitrite was determined from a sodium nitrite standard curve, and the percentage of NO production was calculated based on the ability of each tested sample to inhibit nitric oxide production by LPS-stimulated RAW 264.7 cells compared to the control (cells treated with LPS without samples which was considered as 100% NO production). Additionally, the cell viability of treated cells was determined by using the MTT assay as previously described ([Mosmann, 1983]).

IC50 (Caco-2 cells)	IC50 [1]	SMILES	SI values Caco-2 (Caco-2 cells)	reduction of NO production [1]
7.41 µg/mL and 11.7 µM	18.2 µg/mL and 28.7 µM	C[C@@H]1CC[C@]2(C(=O)O)CC[C@]3(C(=O)O)C(=CCC4[C@@]5(C)CC[C@H](O[C@H]6O[C@H](C)[C@@H](O)[C@H](O)[C@H]6O)C(C)(C)C5CC[C@]43C)C2[C@H]1C (stereo partly drawn) [Compound 6, quinovic acid 3-O-[α-D-quinovopyranoside]]	0.83	at least 50%
53.7 µg/mL and 84.8 µM	49 µg/mL and 77.4 µM	C[C@@H]1CC[C@]2(C(=O)O)CC[C@]3(C(=O)O)C(=CCC4[C@@]5(C)CC[C@H](O[C@@H]6O[C@H](C)[C@@H](O)[C@H](O)[C@H]6O)C(C)(C)C5CC[C@]43C)C2[C@H]1C (stereo partly drawn) [Compound 9, quinovic acid 3-O-[β-D-quinovopyranoside]]	0.88	at least 50%
63.2 µg/mL and 205 µM	> 100 µg/mL and > 324 µM	C[C@]12COCC=C1C[C@H]1c3[nH]c4ccccc4c3CCN1C2=O [Compound 10, latifoliamide C]	1.04	–

SMILES	IC50 (Caco-2 cells)	IC50 [1]	SI values Caco-2 (Caco-2 cells)	reduction of NO production [1]
CC1(C)CC[C@]2(C(=O)O)CC[C@]3(C)C(=CC[C@@H]4[C@@]5(C)CC[C@H](O)[C@@](C)(CO)[C@@H]5CC[C@]43C)[C@@H]2C1 [Compound 2, hederagenin]	36.7 µg/mL and 77.6 µM	65.1 µg/mL and 138 µM	1.24	at least 50%
